# Test results as given in ChEMBL document CHEMBL3638962, “Heteroarylcarboxylic acid ester derivative” (2013).
# Target: Enteropeptidase (Homo sapiens, UniProt P98073)
# Assay: Inhibition Assay: Inhibition assay using human enteropeptidase.
# Sequence of Enteropeptidase (P98073 2-784 limits assumed): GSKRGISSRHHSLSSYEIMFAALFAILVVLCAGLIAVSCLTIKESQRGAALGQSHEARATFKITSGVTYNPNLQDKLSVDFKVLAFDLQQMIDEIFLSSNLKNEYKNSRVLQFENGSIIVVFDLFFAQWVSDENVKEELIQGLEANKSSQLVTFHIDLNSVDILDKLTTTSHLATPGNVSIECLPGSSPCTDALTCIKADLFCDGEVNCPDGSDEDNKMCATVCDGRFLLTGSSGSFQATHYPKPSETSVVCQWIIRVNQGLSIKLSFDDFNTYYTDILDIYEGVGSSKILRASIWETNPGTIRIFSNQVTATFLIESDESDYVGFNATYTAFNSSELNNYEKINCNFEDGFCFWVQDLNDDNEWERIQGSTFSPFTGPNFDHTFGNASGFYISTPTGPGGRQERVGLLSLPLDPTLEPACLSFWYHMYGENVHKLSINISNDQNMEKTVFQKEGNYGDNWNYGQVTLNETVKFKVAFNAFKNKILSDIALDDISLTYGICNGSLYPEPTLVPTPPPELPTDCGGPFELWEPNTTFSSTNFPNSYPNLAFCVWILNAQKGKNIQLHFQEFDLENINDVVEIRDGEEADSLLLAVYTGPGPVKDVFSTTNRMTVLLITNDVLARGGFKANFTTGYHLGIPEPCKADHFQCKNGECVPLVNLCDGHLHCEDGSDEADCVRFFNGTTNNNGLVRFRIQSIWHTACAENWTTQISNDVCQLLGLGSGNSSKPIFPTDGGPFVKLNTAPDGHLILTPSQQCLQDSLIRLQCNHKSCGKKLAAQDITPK
# Sequence of Enteropeptidase (P98073 785-1019 limits assumed): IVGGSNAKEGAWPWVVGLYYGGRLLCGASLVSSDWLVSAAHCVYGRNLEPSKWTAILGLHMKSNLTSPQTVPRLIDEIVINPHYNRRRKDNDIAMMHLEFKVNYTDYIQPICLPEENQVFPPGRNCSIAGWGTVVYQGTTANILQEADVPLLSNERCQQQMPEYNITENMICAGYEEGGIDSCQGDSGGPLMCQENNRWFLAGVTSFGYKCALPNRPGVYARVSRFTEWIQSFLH
row,Ki,SMILES
1,0.6 nM,N=C(N)c1ccc(OC(=O)c2ccc(CCC(=O)N(CCC(=O)O)CC(=O)O)o2)cc1
2,0.68 nM,CC(Cc1ccc(C(=O)Oc2ccc(C(=N)N)cc2)o1)C(=O)O[C@H](CC(=O)O)C(=O)O (stereo partly drawn)
3,3.7 nM,CC(Cc1ncc(C(=O)Oc2ccc(C(=N)N)cc2F)s1)C(=O)N[C@@H](CC(=O)O)C(=O)O (stereo partly drawn)
